Laboratory results: PubChem BioAssay AID1963838 (Molecular Pharmacology Branch, DTP, NCI, 2024)

Tested on: 855422-203-R-J1-PDC complex spheroid viability
Experiment: Anticancer human tumor 855422-203-R-J1-PDC patient-derived bladder carcinoma cell line growth inhibition [POLQ]
Details: for IC50: curve of first compound; for viability, T/C: stronger effect = lower value
Procedure, shortened: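 Three-cell-type spheroids modelling solid tumor plus stroma served as the readout system; POL inhibitors were tested individually and in combination, concentration ranges set by clinical Cmax where known.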

[1] = second compound 0.0316 µM, first compound 0.0316 µM
[2] = second compound 0.0316 µM, first compound 0.1 µM
[3] = second compound 0.0316 µM, first compound 0.316 µM
[4] = second compound 0.0316 µM, first compound 1 µM
[5] = second compound 0.0316 µM, first compound 3.16 µM
[6] = second compound 0.0316 µM, first compound 10 µM
[7] = second compound 0.1 µM, first compound 0.0316 µM
[8] = second compound 0.1 µM, first compound 0.1 µM
[9] = second compound 0.1 µM, first compound 0.316 µM
[10] = second compound 0.1 µM, first compound 1 µM
[11] = second compound 0.1 µM, first compound 3.16 µM
[12] = second compound 0.1 µM, first compound 10 µM
[13] = second compound 0.316 µM, first compound 0.0316 µM
[14] = second compound 0.316 µM, first compound 0.1 µM
[15] = second compound 0.316 µM, first compound 0.316 µM
[16] = second compound 0.316 µM, first compound 1 µM
[17] = second compound 0.316 µM, first compound 3.16 µM
[18] = second compound 0.316 µM, first compound 10 µM
[19] = second compound 1 µM, first compound 0.0316 µM
[20] = second compound 1 µM, first compound 0.1 µM
[21] = second compound 1 µM, first compound 0.316 µM
[22] = second compound 1 µM, first compound 1 µM
[23] = second compound 1 µM, first compound 3.16 µM
[24] = second compound 1 µM, first compound 10 µM
[25] = second compound 3.16 µM, first compound 0.0316 µM
[26] = second compound 3.16 µM, first compound 0.1 µM
[27] = second compound 3.16 µM, first compound 0.316 µM
[28] = second compound 3.16 µM, first compound 1 µM
[29] = second compound 3.16 µM, first compound 3.16 µM
[30] = second compound 3.16 µM, first compound 10 µM
[31] = second compound 10 µM, first compound 0.0316 µM
[32] = second compound 10 µM, first compound 0.1 µM
[33] = second compound 10 µM, first compound 0.316 µM
[34] = second compound 10 µM, first compound 1 µM
[35] = second compound 10 µM, first compound 3.16 µM
[36] = second compound 10 µM, first compound 10 µM
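Note: spheroids exposed to compounds for seven days before readout.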

Structure (SMILES): CCc1cc2c(N3CCc4c(cc(Cn5ccnc5)cc4-c4cn(C)nc4C(F)(F)F)C3=O)cc(C)nc2c(OC)n1 + Nc1ccc(C#CCN(C(=O)Cc2ncc(C(F)(F)F)cc2C(F)(F)F)c2ccc(F)cc2)nn1
- IC50 (second compound 0.0316 µM): 6 µM
- IC50 (second compound 0.1 µM): 5.3 µM
- IC50 (second compound 0.316 µM): 5.49 µM
- IC50 (second compound 1 µM): 6.4 µM
- IC50 (second compound 3.16 µM): 5.25 µM
- IC50 (second compound 10 µM): 3.47 µM
- viability, T/C [1]: 133%
- viability, T/C [2]: 120%
- viability, T/C [3]: 119%
- viability, T/C [4]: 93.5%
- viability, T/C [5]: 66.3%
- viability, T/C [6]: 37.1%
- viability, T/C [7]: 131%
- viability, T/C [8]: 138%
- viability, T/C [9]: 127%
- viability, T/C [10]: 96%
- viability, T/C [11]: 63.5%
- viability, T/C [12]: 35.5%
- viability, T/C [13]: 114%
- viability, T/C [14]: 138%
- viability, T/C [15]: 108%
- viability, T/C [16]: 95.8%
- viability, T/C [17]: 61.5%
- viability, T/C [18]: 37.4%
- viability, T/C [19]: 111%
- viability, T/C [20]: 121%
- viability, T/C [21]: 111%
- viability, T/C [22]: 92.2%
- viability, T/C [23]: 71.5%
- viability, T/C [24]: 37.1%
- viability, T/C [25]: 110%
- viability, T/C [26]: 118%
- viability, T/C [27]: 133%
- viability, T/C [28]: 92.5%
- viability, T/C [29]: 61.2%
- viability, T/C [30]: 38.6%
- viability, T/C [31]: 116%
- viability, T/C [32]: 115%
- viability, T/C [33]: 98%
- viability, T/C [34]: 77.4%
- viability, T/C [35]: 52.2%
- viability, T/C [36]: 31.7%

Structure (SMILES): COc1cc2cc(C(=O)CCC(=O)O)sc2cc1OC + Nc1ccc(C#CCN(C(=O)Cc2ncc(C(F)(F)F)cc2C(F)(F)F)c2ccc(F)cc2)nn1
- IC50 (second compound 0.0316 µM): > 10 µM
- IC50 (second compound 0.1 µM): > 10 µM
- IC50 (second compound 0.316 µM): > 10 µM
- IC50 (second compound 1 µM): > 10 µM
- IC50 (second compound 3.16 µM): > 10 µM
- IC50 (second compound 10 µM): > 10 µM
- viability, T/C [1]: 97.8%
- viability, T/C [2]: 121%
- viability, T/C [3]: 97.6%
- viability, T/C [4]: 86.3%
- viability, T/C [5]: 109%
- viability, T/C [6]: 94.5%
- viability, T/C [7]: 99.8%
- viability, T/C [8]: 101%
- viability, T/C [9]: 91%
- viability, T/C [10]: 82%
- viability, T/C [11]: 138%
- viability, T/C [12]: 109%
- viability, T/C [13]: 104%
- viability, T/C [14]: 105%
- viability, T/C [15]: 90%
- viability, T/C [16]: 94.1%
- viability, T/C [17]: 107%
- viability, T/C [18]: 92%
- viability, T/C [19]: 86.8%
- viability, T/C [20]: 104%
- viability, T/C [21]: 102%
- viability, T/C [22]: 98.7%
- viability, T/C [23]: 97.3%
- viability, T/C [24]: 90.4%
- viability, T/C [25]: 92.4%
- viability, T/C [26]: 111%
- viability, T/C [27]: 94.9%
- viability, T/C [28]: 97.5%
- viability, T/C [29]: 97.1%
- viability, T/C [30]: 88.6%
- viability, T/C [31]: 92.8%
- viability, T/C [32]: 92%
- viability, T/C [33]: 87.1%
- viability, T/C [34]: 102%
- viability, T/C [35]: 96%
- viability, T/C [36]: 88.5%
